Measurements reported in the supplement of paper PMC11451515.

System: P12-Ichikawa
Assay: cell viability relative to DMSO control; higher = less cytotoxic
Conditions: 48 h
How it was run: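 Library compounds in DMSO were pin-dosed into 1536-well plates (5 μl) holding NOMO1 or SEM (500 cells/well) or P12-Ichikawa (1000 cells/well) leukemia cells, across an 11-point threefold series of 47 μM to 0.79 nM. Each cell line had been adapted for at least four passages in each medium. CellTiter-Glo One luminescence was read after 48 h at 37°C. Viability is the per-plate percentage relative to DMSO wells, with cell-free wells as background.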

[1] = HPLM + 10% dialyzed FBS, 0.000781 µM
[2] = HPLM + 10% dialyzed FBS, 0.00234 µM
[3] = HPLM + 10% dialyzed FBS, 0.00702 µM
[4] = HPLM + 10% dialyzed FBS, 0.0211 µM
[5] = HPLM + 10% dialyzed FBS, 0.0632 µM
[6] = HPLM + 10% dialyzed FBS, 0.19 µM
[7] = HPLM + 10% dialyzed FBS, 0.569 µM
[8] = HPLM + 10% dialyzed FBS, 1.71 µM
[9] = HPLM + 10% dialyzed FBS, 5.12 µM
[10] = HPLM + 10% dialyzed FBS, 15.4 µM
[11] = HPLM + 10% dialyzed FBS, 46.1 µM
[12] = RPMI 5 mM glucose + 10% FBS, 0.000781 µM
[13] = RPMI 5 mM glucose + 10% FBS, 0.00234 µM
[14] = RPMI 5 mM glucose + 10% FBS, 0.00702 µM
[15] = RPMI 5 mM glucose + 10% FBS, 0.0211 µM
[16] = RPMI 5 mM glucose + 10% FBS, 0.0632 µM
[17] = RPMI 5 mM glucose + 10% FBS, 0.19 µM
[18] = RPMI 5 mM glucose + 10% FBS, 0.569 µM
[19] = RPMI 5 mM glucose + 10% FBS, 1.71 µM
[20] = RPMI 5 mM glucose + 10% FBS, 5.12 µM
[21] = RPMI 5 mM glucose + 10% FBS, 15.4 µM
[22] = RPMI 5 mM glucose + 10% FBS, 46.1 µM
[23] = RPMI 5 mM glucose + 10% dialyzed FBS, 0.000781 µM
[24] = RPMI 5 mM glucose + 10% dialyzed FBS, 0.00234 µM
[25] = RPMI 5 mM glucose + 10% dialyzed FBS, 0.00702 µM
[26] = RPMI 5 mM glucose + 10% dialyzed FBS, 0.0211 µM
[27] = RPMI 5 mM glucose + 10% dialyzed FBS, 0.0632 µM
[28] = RPMI 5 mM glucose + 10% dialyzed FBS, 0.19 µM
[29] = RPMI 5 mM glucose + 10% dialyzed FBS, 0.569 µM
[30] = RPMI 5 mM glucose + 10% dialyzed FBS, 1.71 µM
[31] = RPMI 5 mM glucose + 10% dialyzed FBS, 5.12 µM
[32] = RPMI 5 mM glucose + 10% dialyzed FBS, 15.4 µM
[33] = RPMI 5 mM glucose + 10% dialyzed FBS, 46.1 µM

Compound	cell viability [1]	cell viability [2]	cell viability [3]	cell viability [4]	cell viability [5]	cell viability [6]	cell viability [7]	cell viability [8]	cell viability [9]	cell viability [10]	cell viability [11]	cell viability [12]	cell viability [13]	cell viability [14]	cell viability [15]	cell viability [16]	cell viability [17]	cell viability [18]	cell viability [19]	cell viability [20]	cell viability [21]	cell viability [22]	cell viability [23]	cell viability [24]	cell viability [25]	cell viability [26]	cell viability [27]	cell viability [28]	cell viability [29]	cell viability [30]	cell viability [31]	cell viability [32]	cell viability [33]
CCC(=O)O[C@@]1([C@H](C)C[C@H]2[C@@H]3C[C@H](F)\C4=C\C(=O)\C=C/[C@]4(C)[C@@]3(F)[C@@H](O)C[C@]12C)C(=O)SCF	101%	112%	88%	75.6%	69.2%	64.8%	70.6%	71.5%	65.9%	69.8%	66.2%	120%	119%	86.3%	76.5%	74.7%	68.8%	68.2%	58.9%	59.2%	55.1%	59.9%	95.9%	100%	71.3%	55.5%	54.4%	55.1%	53.6%	49.6%	51.1%	48.6%	46.7%
CN(C)c1nc(N(C)C)nc(N(C)C)n1	108%	108%	104%	104%	101%	103%	94.4%	94.3%	89.6%	94%	83.5%	103%	100%	98.3%	95.9%	90.5%	93.9%	98.8%	87.2%	87.9%	89.9%	93.2%	90.3%	99.9%	95.5%	99.6%	97.1%	91.6%	91.9%	85%	87.9%	90.7%	86.8%
O=C(Oc1ccc([N+](=O)[O-])cc1)N1CCN(Cc2cccc(Oc3ccccc3)c2)CC1	96.8%	101%	106%	116%	113%	112%	114%	111%	113%	102%	104%	105%	98%	112%	114%	111%	112%	122%	118%	102%	102%	107%	101%	92.2%	100%	101%	105%	101%	105%	114%	103%	109%	108%
COC1=CC=C(C=C1)C/2=C/OC3=CC(=CC=C3C2=O)O	122%	116%	114%	112%	124%	111%	115%	102%	106%	104%	96.7%	120%	120%	115%	120%	121%	112%	118%	111%	113%	114%	103%	116%	111%	115%	118%	108%	105%	117%	104%	108%	96.2%	101%
C=C1C[C@@]2(O)O[C@@]3(C[C@H]2C(C)C)[C@@H](C)CC[C@@H]13	110%	119%	112%	129%	117%	123%	122%	112%	117%	125%	118%	113%	127%	114%	126%	129%	134%	119%	123%	122%	128%	132%	112%	109%	116%	117%	122%	135%	113%	125%	121%	127%	128%
CC1=C(/C=C/C(C)=C/C=C/C(C)=C/C(=O)Nc2ccc(O)cc2)C(C)(C)CCC1	85.1%	83.4%	85.5%	96.1%	90.8%	91.8%	93.8%	68.5%	23.7%	8.54%	3.66%	82%	88.8%	83%	91.8%	86.3%	81.9%	87%	57.9%	28.5%	7.98%	1.15%	83.3%	85.9%	84%	84.8%	83.4%	81.5%	83.3%	23.8%	6.39%	4.24%	1.74%
Cl.Cl.Fc1ccc(C(OCCN2CCN(CCCc3ccccc3)CC2)c2ccc(F)cc2)cc1	105%	104%	109%	112%	116%	109%	109%	113%	120%	113%	78.4%	114%	133%	118%	123%	136%	126%	126%	124%	122%	124%	73.9%	115%	121%	119%	117%	127%	121%	122%	115%	120%	120%	62.8%
